Laboratory results taken from publication PMC5454376, “Molecular mechanism of Gαi activation by non-GPCR proteins with a Gα-Binding and Activating motif” (Nature Communications, 2017).
One block for each compound: values may come before it. Where a SMILES comes first, the peptide text is derived from it. The star is where a group is joined. 6FAM = O=C1OC2(c3ccc(O)cc3Oc3cc(O)ccc32)c2cc(C(=O)*)ccc21

Columns and labels:
[1] = system: His-Gαi3 mutants in complex with Gβ1γ1; experiment: Steady-state GTPase assay with rhodopsin; type: biochemical, human; details: rhodopsin 20 nM, Gαi3/Gβ1γ1 100/200 nM, 30 °C
Protocol: Steady-state GTPase assays with rhodopsin
ROS membranes washed with urea were prepared as described earlier and used as the source of rhodopsin[67]. Human His-tagged Gαi3 WT and mutants (20–25 μM) were incubated overnight at 4 °C with twofold excess Gβ1γ1 in 20 mM Tris-HCl, pH 7.4, 20 mM NaCl, 1 mM MgCl2, 1 mM DTT, 10 μM GDP and 5% (v/v) glycerol. Bovine rhodopsin was freshly solubilized from urea-washed ROS membranes in assay buffer (20 mM HEPES, pH 7.5, 100 mM NaCl, 5 mM MgCl2, 1 mM DTT and 0.01% (w:v) dodecylmaltoside) for each experiment. Gαi3/Gβ1γ1 (100/200 nM final) and rhodopsin (20 nM final) were incubated in ice for 30 min under ambient light in assay buffer. Reactions were initiated at 30 °C by adding an equal volume of assay buffer containing 1 μM [γ-^32P]GTP (∼50 c.p.m. fmol^−1) and stopped in duplicates by mixing 25 μl of the reaction with 975 μl of ice-cold 5% (w/v) activated charcoal in 20 mM H3PO4, pH 3. Samples were then centrifuged for 10 min at 10,000g, and 500 μl of the resultant supernatant were scintillation-counted to quantify the amount of [^32P]Pi released. Background [^32P]Pi detected at 15 min in the absence of G protein was subtracted from each reaction (<5% of the counts detected in the presence of G proteins). Results were expressed as per cent of the activity of Gi3 WT without rhodopsin.

His-Gαi3 L249V = target: T1, His-Gαi3 L249V (Homo sapiens, UniProt P08754, L249V); experiment: Fluorescence polarization peptide binding, Gαi3 L249V; details: peptide 0.025 μM, pH 7.4, room temperature, mean±s.e.m., n=3–7, Fig. 4d, read-out: Kd ± SEM
T1 construct: Full-length human Gαi3 (UNIPROT entry P08754) cloned in a pET24d(+) plasmid; made in house; host or cells: E. coli BL21 Rosetta
T1 sequence (P08754 whole entry L249V): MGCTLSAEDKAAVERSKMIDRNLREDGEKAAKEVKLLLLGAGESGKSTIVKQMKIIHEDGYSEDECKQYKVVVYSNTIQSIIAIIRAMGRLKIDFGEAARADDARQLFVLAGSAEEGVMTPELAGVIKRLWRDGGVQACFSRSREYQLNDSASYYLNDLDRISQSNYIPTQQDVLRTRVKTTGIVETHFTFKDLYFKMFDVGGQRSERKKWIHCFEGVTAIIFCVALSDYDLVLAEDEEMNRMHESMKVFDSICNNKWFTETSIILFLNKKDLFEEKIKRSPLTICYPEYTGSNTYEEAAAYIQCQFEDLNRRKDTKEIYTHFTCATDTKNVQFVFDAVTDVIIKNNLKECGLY
Protocol: (§1) Human Gαi3 was expressed from the same plasmid as described for the NMR studies and purified as an uncleaved His-tagged protein. […] After sonication (four cycles, with pulses lasting 20 s and with 1 min interval between pulses to prevent heating), lysates were centrifuged at 12,000g for 20 min at 4 °C. […] The buffer was exchanged for 20 mM Tris-HCl, pH 7.4, 20 mM NaCl, 1 mM MgCl2, 1 mM DTT, 10 μM GDP and 5% (v/v) glycerol using a HiTrap Desalting column (GE Healthcare). Protein samples were stored at −80 °C.
(§2) Fluorescence polarization-based peptide-binding assays
(§3) Briefly, following chain elongation 5,6-carboxyfluorescein was activated with HATU and coupled to the resin-bound peptide at 65 °C for 1 h to yield the fluorescein-labelled peptides. […] Fluorescence polarization measurements were carried out in 384-well plates (Black OptiPlate-384F, Perkin Elmer). […] Fluorescence polarization (excitation 485±10 nm/emission 528±10 nm) was measured every 2 min for 30 min at room temperature in a Biotek H1 synergy plate reader to ensure that the signals were stable in time. Fluorescence polarization at different times was averaged, normalized and fitted to a one site binding hyperbola to determine the equilibrium dissociation constant (Kd). For mutants not reaching binding saturation, the maximal binding of Gαi3 WT measured in the same experimental set was considered 100% binding for normalization.

Gαi3-GDP = experiment: NMR perturbation of Gαi3-GDP backbone amide signals; type: binding, human; details: fivefold molar excess of peptide, 30 °C, pH 7.0
Protocol: Full-length human Gαi3 (UNIPROT entry P08754) cloned in a pET24d(+) plasmid (a generous gift from Ichio Shimada, University of Tokyo) was used to purify the protein used in NMR experiments. For this, protein expression was induced in BL21 Rosetta (Life Technologies) cell cultures with 1 mM IPTG for 16 h at 23 °C in a modified M9 minimal medium containing 1 g l^−1 15N-NH4Cl, 2 g l^−1 2H-^13C-glucose and 1 g l^−1 of ^2H-^13C-^15N Celtone base powder in ^2H2O with 30 mg l^−1 kanamycin and 34 mg l^−1 chloramphenicol. The pelleted cells were lysed by sonication in 50 mM Tris, 200 mM NaCl, 100 mM KCl and 1 mM DTT at pH 8.0, and the supernatant was loaded on a Ni^2+-loaded His-Trap FF column. […]
All NMR data were measured on a Bruker Avance III 800 MHz (18.8 T) spectrometer equipped with a cryogenically cooled triple resonance z-gradient probe, processed with Topspin (Bruker) and analysed with Sparky. […] Gαi3 spectra were recorded at 30 °C on ^2H-^13C-^15N–Gαi3 samples with a threefold molar excess of GDP in 10 mM HEPES (pH 7.0) with 10 mM MgCl2, 5 mm DTT, 0.01% NaN3 and 5% ^2H2O. […] The assignment of Gαi3 resonances in the presence of a fivefold molar excess of GIV fragment 1,671–1,696 was achieved from the joint analysis of an HNCO and ^1H–^15N TROSY spectra recorded along a titration (at molar ratios 1:0, 1:0.2,1:0.5, 1:1, 1:2 and 1:5). […]

His-Gαi3 W211A and F215A = experiment: Gβγ-binding pull-down assay; design: species or system human; details: bovine Gβ1γ1 100 nM, Gαi3 50 nM, 4 h, 4 °C, 30 μM GDP
Protocol: Gβγ was purified from bovine retinas, which are primarily composed of Gβ1γ1 by purification of holotransducin from rod outer segment (ROS) membranes isolated from dark-adapted bovine followed by separation of the Gβ1γ1 complex from the α-subunit of transducin on a Hitrap Blue-sepharose column (GE healthcare), and further purification by anion exchange chromatography using a Hitrap-Q column.
For binding assays, Gβ1γ1 (100 nM final) was incubated in the absence or presence of human His-tagged Gαi3 WT or mutants (50 nM final) in 250 μl of binding buffer (50 mM Tris-HCl, pH 7.4, 100 mM NaCl, 0.4% (v:v) NP-40, 5 mM MgCl2, 10 mM imidazole, 0.1 mg ml^−1 BSA, 1 mM DTT and 30 μM GDP) for 4 h at 4 °C with rotation. A volume of 25 μl of BSA-blocked HisPur cobalt resin (Pierce) were added to each tube and the incubation continued for 90 min. Beads were washed four times with 1 ml of binding buffer and resin-bound proteins eluted by adding Laemmli sample buffer supplemented with 100 mM EDTA and boiling for 5 min. […]

His-Gαi3 F215A = target: T2, His-Gαi3 F215A (Homo sapiens, UniProt P08754, F215A); experiment: Fluorescence polarization peptide binding, Gαi3 F215A; details: peptide 0.025 μM, pH 7.4, room temperature, mean±s.e.m., n=3–7, Fig. 4d, read-out: Kd ± SEM
T2 construct: Full-length human Gαi3 (UNIPROT entry P08754) cloned in a pET24d(+) plasmid; made in house; host or cells: E. coli BL21 Rosetta
T2 sequence (P08754 whole entry F215A): as the sequence (P08754 whole entry L249V) above, with F215A, V249L counted along it
Protocol: as §1, §2, §3

His-Gαi3 K35A = target: T3, His-Gαi3 K35A (Homo sapiens, UniProt P08754, K35A); experiment: Fluorescence polarization peptide binding, Gαi3 K35A; details: peptide 0.025 μM, pH 7.4, room temperature, mean±s.e.m., n=3–7, Fig. 4d, read-out: Kd ± SEM
T3 construct: Full-length human Gαi3 (UNIPROT entry P08754) cloned in a pET24d(+) plasmid; made in house; host or cells: E. coli BL21 Rosetta
T3 sequence (P08754 whole entry K35A): as the sequence (P08754 whole entry L249V) above, with K35A, V249L counted along it
Protocol: as §1, §2, §3

His-Gαi3 W211A = target: T4, His-Gαi3 W211A (Homo sapiens, UniProt P08754, W211A); experiment: Fluorescence polarization peptide binding, Gαi3 W211A; details: peptide 0.025 μM, pH 7.4, room temperature, mean±s.e.m., n=3–7, Fig. 4d, read-out: Kd ± SEM
T4 construct: Full-length human Gαi3 (UNIPROT entry P08754) cloned in a pET24d(+) plasmid; made in house; host or cells: E. coli BL21 Rosetta
T4 sequence (P08754 whole entry W211A): as the sequence (P08754 whole entry L249V) above, with W211A, V249L counted along it
Protocol: as §1, §2, §3

ΔHis-Gαi3 = target: T5, ΔHis-Gαi3 (Homo sapiens, UniProt P08754); experiment: Fluorescence polarization peptide binding, ΔHis-Gαi3; details: room temperature, n=3, Supplementary Fig. 5
T5 construct: Full-length human Gαi3 (UNIPROT entry P08754) cloned in a pET24d(+) plasmid; His-tag (N, cleaved yes); made in house; host or cells: E. coli BL21 Rosetta
T5 sequence (P08754 whole entry, stated change not applied): as the sequence (P08754 whole entry L249V) above, with V249L counted along it
Protocol: Briefly, following chain elongation 5,6-carboxyfluorescein was activated with HATU and coupled to the resin-bound peptide at 65 °C for 1 h to yield the fluorescein-labelled peptides. The remaining steps were carried out as described above. Fluorescence polarization measurements were carried out in 384-well plates (Black OptiPlate-384F, Perkin Elmer). […] Fluorescence polarization (excitation 485±10 nm/emission 528±10 nm) was measured every 2 min for 30 min at room temperature in a Biotek H1 synergy plate reader to ensure that the signals were stable in time. Fluorescence polarization at different times was averaged, normalized and fitted to a one site binding hyperbola to determine the equilibrium dissociation constant (Kd). For mutants not reaching binding saturation, the maximal binding of Gαi3 WT measured in the same experimental set was considered 100% binding for normalization.

His-Gαi3 N256E = target: T6, His-Gαi3 N256E (Homo sapiens, UniProt P08754, N256E); experiment: Fluorescence polarization peptide binding, Gαi3 N256E; details: peptide 0.025 μM, pH 7.4, room temperature, mean±s.e.m., n=3–7, Fig. 4d, read-out: Kd ± SEM
T6 construct: Full-length human Gαi3 (UNIPROT entry P08754) cloned in a pET24d(+) plasmid; made in house; host or cells: E. coli BL21 Rosetta
T6 sequence (P08754 whole entry N256E): as the sequence (P08754 whole entry L249V) above, with V249L, N256E counted along it
Protocol: as §1, §2, §3

Kd (His-Gαi3 L249V): 0.084 ± 0.009 µM
Compound: CC[C@H](C)[C@H](NC(=O)[C@H](CC(C)C)NC(=O)[C@H](CCC(=O)O)NC(=O)[C@H](Cc1ccccc1)NC(=O)[C@H](Cc1ccccc1)NC(=O)[C@H](CCC(=O)O)NC(=O)[C@H](CCC(=O)O)NC(=O)[C@H](C)NC(=O)[C@H](CCC(=O)O)NC(=O)[C@H](CC(=O)O)NC(=O)c1ccc2c(c1)C1(OC2=O)c2ccc(O)cc2Oc2cc(O)ccc21)C(=O)N[C@@H](CO)C(=O)N[C@@H](CCCCN)C(=O)N[C@@H](C)C(=O)N[C@@H](CCC(N)=O)C(=O)N[C@@H](CO)C(=O)N[C@@H](CC(N)=O)C(=O)N[C@@H](CCCNC(=N)N)C(=O)N[C@@H](C)C(=O)N[C@@H](CC(=O)O)C(=O)N[C@@H](CC(=O)O)C(=O)N[C@@H](CCC(N)=O)C(=O)N[C@@H](CCCNC(=N)N)C(=O)NCC(=O)N[C@@H](CC(C)C)C(=O)N[C@@H](CC(C)C)C(=O)N[C@@H](CCCNC(=N)N)C(=O)N[C@@H](CCCCN)C(=O)N[C@@H](CCC(=O)O)C(=O)N[C@@H](CC(=O)O)C(=O)N[C@@H](CC(C)C)C(=O)N[C@H](C(=O)N[C@@H](CC(C)C)C(=O)N1CCC[C@H]1C(=O)N[C@@H](CCC(=O)O)C(=O)N[C@@H](Cc1ccccc1)C(=O)N[C@@H](CC(C)C)C(=O)N[C@@H](CCCNC(=N)N)C(N)=O)C(C)C [RGS12, reference compound] (6FAM-DEAEEFFELISKAQSNRADDQRGLLRKEDLVLPEFLR-NH2)

Kd (His-Gαi3 F215A): > 10 µM
Kd (His-Gαi3 K35A): > 10 µM
Kd (His-Gαi3 W211A): > 20 µM
Kd (His-Gαi3 L249V): 1.37 ± 0.199 µM
affinity for ΔHis-Gαi3 compared with His-Gαi3 (ΔHis-Gαi3): the same affinity
Kd (His-Gαi3 N256E): > 20 µM
Compound: CC[C@H](C)[C@H](NC(=O)[C@H](CCC(N)=O)NC(=O)[C@@H](NC(=O)[C@H](CO)NC(=O)[C@@H](NC(=O)[C@H](CC(C)C)NC(=O)[C@H](CCCCN)NC(=O)[C@H](CC(N)=O)NC(=O)[C@H](CO)NC(=O)[C@H](CCC(=O)O)NC(=O)[C@H](CCC(=O)O)NC(=O)[C@H](CC(C)C)NC(=O)[C@H](Cc1ccccc1)NC(=O)[C@H](CCC(N)=O)NC(=O)[C@H](CCC(N)=O)NC(=O)[C@H](CC(C)C)NC(=O)[C@@H](NC(=O)[C@@H](NC(=O)[C@@H](NC(=O)[C@H](CCC(=O)O)NC(=O)[C@H](CO)NC(=O)CNC(=O)[C@@H]1CCCN1C(=O)[C@H](CO)NC(=O)CNC(=O)[C@@H](NC(=O)[C@H](CCCCN)NC(=O)c1ccc2c(c1)C1(OC2=O)c2ccc(O)cc2Oc2cc(O)ccc21)[C@@H](C)O)C(C)C)C(C)C)[C@@H](C)O)[C@@H](C)O)C(C)C)C(=O)N[C@@H](CCCCN)C(=O)N[C@@H](CO)C(=O)N[C@@H](CO)C(=O)N[C@@H](CO)C(N)=O [GIV]

Continued, compound first:

Compound: rhodopsin: bovine rhodopsin solubilized from urea-washed ROS membranes
activation of Gαi3 mutants ([1]; K35A, L249H, S252D and N256E): activated efficiently
activation of Gαi3 ΔC9 ([1]; ΔC9): completely abolished

Compound: KTGSPGSEVVTLQQFLEESNKLTSVQ [GIVpept, peptide corresponding to GIV amino acids 1,671–1,696]
overall decrease in signal intensities (Gαi3-GDP): ~15%

Compound: Gβγ: retinal Gβγ (Gβ1γ1) purified from bovine retinas
binding to Gαi3 W211A and F215A (His-Gαi3 W211A and F215A): abolished
